The values that follow come from ChEMBL document CHEMBL6115046, “Synthesis and In Vitro Profiling of Psilocin Derivatives: Improved Stability and Synthetic Properties” (J Med Chem, 2025).

The nature of series [1]: Metabolic stability in human liver microsomes assessed as degradation at 1 uM measured upto 45 mins in presence of NADPH measured per mg protein by LC-MS/MS analysis. The series is classed as ADME, Microsome. Conditions: 0.75 h.
Series [2] is described as follows: Thermal stability of compound assessed as half life at 60 degreeC measured for 6 days by LC-MS analysis. The series is classed as physicochemical. The conditions noted are these: 144 h; time 6 day.
A short description of series [3]: Chemical stability of the compound in 1M HCl assessed as half life measured for 24 hrs by LC-MS analysis. The series is classed as physicochemical.
A short description of series [4]: Photolytic stability of the compound assessed as parent compound remaining incubated under 12900 lx light irradiation measured for 14 days by LC-MS analysis. The series is classed as physicochemical. Conditions: time 14 day.
Series [5] is described as follows: Stability of the compound in 1M HCl assessed as parent compound remaining measured for 24 hrs by LC-MS analysis. The series is classed as physicochemical. The conditions noted are these: buffer.
Series [6] in a line: Stability of the compound in 0.30% H2O2 assessed as half life measured after 24 hrs by LC-MS analysis. The series is classed as physicochemical.
Series [7] can be described thus: Thermal stability of the compound assessed as parent compound remaining at 60 degreeC measured for 6 days by LC-MS analysis. The class given is physicochemical. Conditions: time 6 day.
Series [8] is described as follows: Stability of the compound in 0.1M NaOH assessed as half life measured after 24 hrs by LC-MS analysis. The series is classed as physicochemical.
Series [9] in a line: Stability of the compound in 0.1M NaOH assessed as parent compound remaining measured after 24 hrs by LC-MS analysis. The conditions noted are these: read-out: Stability. The series is classed as physicochemical.
Series [10] in a line: Photolytic stability of the compound assessed as half life under 12900 lx light irradiation measured for 14 days by LC-MS analysis. The series is classed as physicochemical. Conditions: time 14 day.
A short description of series [11]: Stability of the compound in 0.30% H2O2 assessed as parent compound remaining measured after 24 hrs by LC-MS analysis. The series is classed as physicochemical. Conditions: read-out: Stability.

What is called half-life is the time in which the quantity being followed falls by half.

As for `CN(C)CCc1c[nH]c2cccc(OP(=O)(O)O)c12` [PSILOCYBIN], in [1], the Drug degradation is under 10 µL/min.
The same measure, in the same setting: to `CN(C)CCc1c[nH]c2cccc(OCc3ccccc3)c12` belongs 44 µL/min.
On the same count and under the same terms, to `CCCC(=O)Oc1cccc2[nH]cc(CCN(C)C)c12.O=C(O)/C=C/C(=O)O` belongs over 200 µL/min.
Same read-out and setting: the figure for `CN(C)CCc1c[nH]c2cccc(OC(=O)OCc3ccccc3)c12.O=C(O)/C=C/C(=O)O.O=CO` is over 200 µL/min; for `CN(C)CCc1c[nH]c2cccc(OC(=O)N3CCCCC3)c12.O=C(O)/C=C/C(=O)O` it is under 10 µL/min.
As for `CN(C)CCc1c[nH]c2cccc(O)c12.O=C1O[C@H]([C@@H](O)CO)C(O)=C1O`, the t1/2 in series [2] is 150 h; in series [3] (buffer, 24 h), over 166.67 h; in series [6], over 166.67 h; in series [8] it was 16.67 h. Further, the Stability in series [4] (336 h) came to 39%; in [5], 97%; in series [7] (144 h), 42%.
Consider `CN(C)CCc1c[nH]c2cccc(OB(O)O)c12.O=C(O)/C=C/C(=O)O`, for which the Drug degradation in series [1] was over 200 µL/min.
Same read-out and setting: to `CC(C)COC(=O)Oc1cccc2[nH]cc(CCN(C)C)c12.O=CO` belongs over 200 µL/min.
Take `CCCCC(=O)Oc1cccc2[nH]cc(CCN(C)C)c12.O=C(O)/C=C/C(=O)O`: the Drug degradation in series [1] is over 200 µL/min.
As for `CN(C)CCc1c[nH]c2cccc(O)c12.OB(O)O`, the half-life is over 167 h in series [3] (1M HCl) and under 16.7 h in [10]. In addition, the remaining at 24 h in series [9] and in series [11] was 0% throughout. In [4] (read-out: Stability), the remaining at 336 h was found to be 0%. The remaining at 144 h in series [7] (read-out: Stability) is 0%.
Regarding `CN(C)CCc1c[nH]c2cccc(OS(=O)(=O)O)c12`, the Drug degradation in [1] is over 200 µL/min.
Still for that read-out and setting: the figure for `COC(=O)Oc1cccc2[nH]cc(CCN(C)C)c12.O=C(O)/C=C/C(=O)O` is over 200 µL/min.
